Data taken from patent US20210369720A1, “SYNERGISTIC COMPOSITION HAVING NEUROPROTECTIVE PROPERTIES AND METHODS OF USE THEREOF” (Rutgers, The State University of New Jersey, priority 2018, published 2021).

What was measured:
[1] = target: T1, PP2A methylesterase (PME-1) (Homo sapiens, UniProt Q9Y570); conditions: cited from earlier work
T1 sequence (Q9Y570 1-386): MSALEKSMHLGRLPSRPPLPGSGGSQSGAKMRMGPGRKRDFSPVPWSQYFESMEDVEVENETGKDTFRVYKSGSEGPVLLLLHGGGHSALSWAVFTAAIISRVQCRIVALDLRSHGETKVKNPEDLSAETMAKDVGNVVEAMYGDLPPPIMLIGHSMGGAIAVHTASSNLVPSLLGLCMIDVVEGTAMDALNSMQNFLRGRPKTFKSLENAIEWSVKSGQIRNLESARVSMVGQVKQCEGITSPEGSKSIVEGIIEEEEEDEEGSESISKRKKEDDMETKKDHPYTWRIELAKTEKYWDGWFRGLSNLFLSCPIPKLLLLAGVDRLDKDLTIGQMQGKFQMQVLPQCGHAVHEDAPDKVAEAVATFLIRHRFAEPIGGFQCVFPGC

MAP2 = assay: Immunofluorescence staining of MAP2 in the cortex, Syn^Tg mice; type: in vivo; conditions: EHT 12 mg/kg/day and/or caffeine 50 mg/kg/day until six months of age
Text: (§1) Thy1-α-synuclein transgenic mice (Syn^Tg) on BDF1 background overexpressing human wild-type α-synuclein under the control of the Thy1 promoter were maintained by mating heterozygous transgenic females with WT BDF1 males (Rockenstein E, et al. (2002) Differential neuropathological alterations in transgenic mice expressing alpha-synuclein from the platelet-derived growth factor and Thy-1 promoters. J Neurosci Res 68(5):568-578). BDF1 mice (mixed C57BL/6-DBA/2) were generated every three months by mating female C57BL/6 (The Jackson Laboratory) and male DBA/2 mice (Charles River). Experiments were performed with male transgenic mice and their WT littermates. […] Wild-type littermates received regular water and control chow. […] At two months of age, mice were inoculated with α-Syn PFF unilaterally in the striatum. These treatments continued throughout the experiment until animals were sacrificed. Mice were weighed and their food and water intake was quantified weekly. Animals were housed 2-5/cage in an AAALAC approved facility in a temperature- and humidity-controlled environment under a 12-hour light/dark cycle and were maintained on a diet of lab chow and water ad libitum. […]

[2] = test system: α-Syn PFF inoculated WT mice; assay: Wire Hang test, α-Syn PFF inoculated WT mice; type: in vivo; conditions: EHT 12 mg/kg/day in diet and/or caffeine 50 mg/kg/day in drinking water from weaning, 6 months post-inoculation
Text: as §1

[3] = test system: phosphorylated α-synuclein (p-α-Syn); assay: Immunohistochemical staining of p-α-Syn, Syn^Tg mice; type: in vivo; conditions: EHT 12 mg/kg/day and/or caffeine 50 mg/kg/day until six months of age, vs untreated Syn^Tg mice
Text: as §1, with “weekly.” for “weekly. Animals were housed 2-5/cage in an AAALAC approved facility in a temperature- and humidity-controlled environment under a 12-hour light/dark cycle and were maintained on a diet of lab chow and water ad libitum.”
Vectastain elite ABC kit (Vector Laboratories, Burlingame, Calif.) and 3,3′-diaminobenzidine (Sigma-Aldrich) were used for amplifying and color development. […] For other stains, the whole microscopic field was analyzed. For p-α-Syn stains in the cortex, four matching regions in each of two sections per animal were counted.

[4] = test system: α-Syn PFF inoculated WT mice; assay: Rotarod, α-Syn PFF inoculated WT mice; type: in vivo; conditions: EHT 12 mg/kg/day in diet and/or caffeine 50 mg/kg/day in drinking water from weaning, 6 months post-inoculation
Text: as §1

[5] = test system: Tyrosine hydroxylase (TH); assay: Striatal TH staining, α-Syn PFF inoculated WT mice; type: in vivo; conditions: EHT 12 mg/kg/day and/or caffeine 50 mg/kg/day, vs untreated α-Syn PFF inoculated mice
Text: as §1

Syn^Tg mice [6] = assay: Nesting behavior, Syn^Tg mice; type: in vivo; conditions: EHT 12 mg/kg/day in chow and/or caffeine 50 mg/kg/day in drinking water from weaning until six months of age, vs untreated Syn^Tg mice
Text: as §1

Syn^Tg mice [7] = assay: Wire Hang test, Syn^Tg mice; type: in vivo; conditions: EHT 12 mg/kg/day in chow and/or caffeine 50 mg/kg/day in drinking water from weaning until six months of age, vs untreated Syn^Tg mice
Text: as §1

## CCCCCCCCCCCCCCCCCCCC(=O)NCCc1c[nH]c2ccc(O)cc12 [EHT, eicosanoyl-5-hydroxytryptamide]
[1]
  inhibition of the activity of the PP2A methylesterase (PME-1): inhibit the activity
MAP2
  MAP2 in the cortex (neuritic integrity): did not improve this profile
[2]
  performance on the wire hang test: improved performance
[3]
  number of p-α-Syn immunoreactive cells, hippocampus (FIG. 2B): reduced p-α-Syn positive cells
[4]
  performance on the rotarod: improved performance
[5]
  TH staining of dopaminergic terminals in the striatum (ipsilateral and contralateral): non-significant increase
Syn^Tg mice [6]
  nesting behavior: did not improve performance
Syn^Tg mice [7]
  performance on the wire hang test: did so only on the Wire Hang test
